{
  "source": "paper PMC8782923",
  "about": "“A Klotho-derived peptide protects against kidney fibrosis by targeting TGF-β signaling” (Nature Communications, 2022)",
  "key": {"[1]": {"test_system": "Smad2/3 phosphorylation in NRK-49F cells", "experiment": "TGF-β1-induced Smad2/3 phosphorylation in NRK-49F cells (Western blot)", "type": "cell-based, rat", "details": "KP1 10 µg/ml (3 μM) or ITD-1 3 μM 1 h, TGF-β1 2 ng/ml 45 min, individual values, n = 3, P <0.001, 0.008 and <0.001, Fig. 3m", "protocol": "(§1) Normal rat kidney interstitial fibroblasts (NRK-49F) and human proximal tubular epithelial cells (HKC-8) were cultured at 37 °C. NRK-49F cells were serum-starved for 24 h and were pretreated with KP1 (10 µg/ml, 3 µM) for 1 h prior to incubation with TGF-β1 (#240-B; R&D Systems) at 2 ng/ml. Cells were collected at 45 min or 24 h after TGF-β1 treatment, respectively. Whole-cell lysates were prepared and subjected to Western blot analyses. For some experiments, cells were transiently transfected with expression vector human secreted Klotho (sKlotho) that only contains KL1 domain[48], by using Lipofectamine 2000 reagent (Invitrogen, Grand Island, NY) prior to treatment with TGF-β1.\n(§2) Western blot analysis was performed as previously described. […] Image J (v1.8.0) was used to quantify Western blot results."}, "[2]": {"test_system": "ERK1/2, JNK and p38 phosphorylation in NRK-49F cells", "experiment": "TGF-β1-induced MAPK (ERK1/2, JNK, p38) phosphorylation in NRK-49F cells (Western blot)", "type": "cell-based, rat", "details": "KP1 10 µg/ml (3 μM) or ITD-1 3 μM 1 h, TGF-β1 2 ng/ml 45 min, individual values, n = 3, P <0.001, <0.001 and <0.001, Fig. 3n", "protocol": "as §1, §2"}, "UUO mice": {"test_system": "UUO mice", "experiment": "KP1 versus ITD-1 in UUO mice: renal TGF-β signaling and fibrosis proteins (Western blot)", "type": "in vivo, mouse", "set-up": "renal p-Smad2 (Western blot) / renal p-Smad3 (Western blot) / renal p-p38 (Western blot) / renal p-JNK (Western blot) / renal collagen I (Western blot) / renal fibronectin (Western blot) / renal α-SMA (Western blot): unit not given here", "details": "KP1 1 mg/kg (0.31 μM/kg) or ITD-1 0.31 μM/kg, individual animals", "protocol": "(§3) Male BALB/c mice weighing 20–22 g were purchased from Beijing Vital River Laboratory Animal Technology Co. and housed in a standard environment which was characterized by 12 h light/dark cycle, 22–25 °C, and 40–60% humidity with free access to water and chow (catalog number: SWS9102). Mice have randomly divided into 3 groups: (i) sham controls; (ii) UIRI or UUO mice treated with vehicle; (iii) UIRI or UUO mice treated with KP1. A renal UIRI model was performed. Briefly, under general anesthesia, mice were made a midline abdominal incision, and the left kidney was clipped for 35 min by a vascular clamp. Mice were kept on the heating block at 37 °C during ischemia. The contralateral right kidney was removed on day 10 after ischemia–reperfusion. Mice were sacrificed 11 days after IRI. Blood and kidneys were collected for analysis. UUO model was established. Briefly, the left ureter of the lower pole of the kidney was obstructed by 3–0 surgical suture. KP1 peptide was dissolved in 0.01 M acetic acid and administrated intravenously via tail vein at concentration of 1 mg/day/kg (0.31 μM/day/kg) body weight for 6 days. For some experiments, ITD-1 (S6713, Selleck) was dissolved in PBS with 0.025% DMSO and 0.1% Tween 80 buffer and injected via tail vein at 0.31 μM/day/kg body weight. All animal studies were approved by the Laboratory Animal Ethics Committee of Nanfang Hospital, Southern Medical University.\nWestern blot analysis was performed as previously described. The primary antibodies used were as follows: anti-fibronectin (dilution 1:10000; F3648; Sigma), anti-α-SMA (dilution 1:1000; ab7817; Abcam), anti-collagen-1 (dilution 1:1000; BM4017; Boster), anti-p-Smad3 (dilution 1:1000; #9520), anti-p-Smad2 (dilution 1:1000; #3104s), anti-p-ERK (dilution 1:1000; #9101s), anti-p-p38 (dilution 1:1000; #9211s), anti-p-JNK (dilution 1:1000; #9251s), anti-Smad2/3 (dilution 1:1000; #8685s), anti-JNK (dilution 1:1000; #9252), anti-ERK (dilution 1:1000; #4695), anti-p38 (dilution 1:1000; #8690; Cell Signaling Technology), anti-Klotho (dilution 1:1000; AF1819; R&D System), anti-TβR2 (dilution 1:1000; sc-7791; Santa Cruz), anti-TGF-β1 (dilution 1:1000; ab92486; Abcam), anti-GAPDH (dilution 1:5000; LK9002L; Sungene, Tianjin), anti-FITC (dilution 1:1000; PA1-26793; Invitrogen), anti-F4/80 (dilution 1:1000; 14-4801-82, eBioscience). The integration of all blots images was performed on Adobe Photoshop CS6. Graphpad Prism 8 was used to get statistics figures. Image J (v1.8.0) was used to quantify Western blot results. […]\nin vivo. UUO mice were treated with KP1 (1 mg/kg, 0.31 μM/kg) or ITD-1 (0.31 μM/kg). We stern blot analyses (a, b) and quantitative data of p-Smad2 (c), p-Smad3 (d), p-ERK1/2 (e), p-JNK (f) and p-p38 […]\nn=6 biologically independent animals. (h-k) Western blot analyses (h) and quantitative data of fibronectin (i), α-SMA (j) and Collagen Ⅰ (k) are shown. P values (from left to right): 0.001, 0.627, […]\nindependent animals. Data are presented as mean values +/- SEM. Statistical significance was determined by one-way ANOVA followed by Dunnett’s T3 post hoc test.\n(1 picture or pasted object on this page, not shown here)"}, "[3]": {"target": "T1, TGF-β receptor 2 (TβR2), recombinant (Homo sapiens, UniProt P37173)", "T1 construct": "purchased Sino Biological Inc., Beijing, China 10358-H03H-B", "T1 sequence (P37173 23-159 limits assumed)": "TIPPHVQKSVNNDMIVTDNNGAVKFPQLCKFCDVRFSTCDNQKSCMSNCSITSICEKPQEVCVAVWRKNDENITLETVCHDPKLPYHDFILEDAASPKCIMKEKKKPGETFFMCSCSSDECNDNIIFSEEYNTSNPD", "experiment": "SPR affinity measurement (Biacore T200)", "type": "binding", "details": "25 °C, 1:1 fit, KP1 0.78–25 μM, KP12 1.56–100 μM, representative of two independent experiments, read-out: ka", "protocol": "The SPR analyses were performed on a Biacore T200 apparatus (GE Healthcare, Uppsala Sweden) at 25 °C. Recombinant TGF-β receptor 2 protein (43.4 kDa, >95% as determined by SDS-PAGE) (10358-H03H-B; Sino Biological Inc., Beijing, China) diluted at 50 µg/ml in 10 mM acetate pH 4.0, was covalently immobilized on a CM5 sensor chip (GE Healthcare) using amine-coupling chemistry. Samples of KP1 (3.229 kDa, HPLC purity >95%) or KP12 (3.6 kDa, HPLC purity >95%) in PBS at various concentrations were injected at a flow rate of 60 μl/min. The injection time was set to 180 s, the dissociation time was set to 540 s, and 50 mM Gly-HCl (pH = 2.5) was used as the regeneration buffer. Data were fitted to a 1:1 binding model to obtain KD. All results presented were representative of double or triplicated injections in an interleaved manner. Two independent experiments were performed."}, "UIRI mice": {"test_system": "UIRI mice", "experiment": "Blood calcium and phosphorus in UIRI mice", "type": "in vivo, mouse", "protocol": "as §3"}},
  "note": "Several values for one entry are separate records, joined by “and”; a condition that tells them apart may be missing. Equal values may be shown once.",
  "data": [
    {"compound": "CCOC(=O)C1=C(C)NC2=C(C(=O)CC(C)(C)C2)C1c1ccc(-c2ccccc2)cc1", "note": "(centres unmarked) [ITD-1]", "values": [
      {"measurement": "p-Smad3 (quantitative Western blot), KP1 versus ITD-1", "setting": "[1]", "value": "2.756 and 2.347 and 1.188"},
      {"measurement": "p-p38 (quantitative Western blot), KP1 versus ITD-1", "setting": "[2]", "value": "2.793 and 1.62 and 1.25"},
      {"measurement": "renal collagen I (Western blot)", "setting": "UUO mice; n = 6, P 0.001, 0.477, 0.001, Supplementary Fig. 5k", "value": "6.627 and 4.346 and 7.91 and 8.759 and 4.669 and 8.535"},
      {"measurement": "renal fibronectin (Western blot)", "setting": "UUO mice; n = 6, P 0.001, 0.627, <0.001, Supplementary Fig. 5i", "value": "9.72 and 9.315 and 3.815 and 3.805 and 3.523 and 5.024"},
      {"measurement": "renal p-ERK1/2 (Western blot)", "setting": "UUO mice; n = 6, P 0.004, 0.988, 0.002, Supplementary Fig. 5e", "value": "11.5729 and 8.005 and 9.67 and 4.8 and 3.482 and 4.512"},
      {"measurement": "renal α-SMA (Western blot)", "setting": "UUO mice; n = 6, P 0.006, 0.497, 0.007, Supplementary Fig. 5j", "value": "10.3176 and 15.77 and 12.2484 and 11.8776 and 11.4615 and 9.704"},
      {"measurement": "renal p-Smad3 (Western blot)", "setting": "UUO mice; n = 6, P <0.001, 0.438, <0.001, Supplementary Fig. 5d", "value": "6.279 and 6.866 and 5.7731 and 6.57 and 6.136 and 7.119"},
      {"measurement": "renal p-JNK (Western blot)", "setting": "UUO mice; n = 6, P <0.001, 0.758, <0.001, Supplementary Fig. 5f", "value": "4.803 and 6.567 and 5.7 and 7.786 and 5.264 and 7.2"},
      {"measurement": "renal p-p38 (Western blot)", "setting": "UUO mice; n = 6, P <0.001, 1.00, 0.001, Supplementary Fig. 5g", "value": "5.956 and 6.507 and 4.878 and 4.538 and 5.819 and 6.755"},
      {"measurement": "renal p-Smad2 (Western blot)", "setting": "UUO mice; n = 6, P <0.001, 1.00, <0.001, Supplementary Fig. 5c", "value": "18.8987 and 13.9891 and 9.419 and 10.7729 and 8.909 and 13.9004"}
    ]},
    {"compound": "CC(C)C[C@H](NC(=O)[C@H](Cc1ccccc1)NC(=O)CNC(=O)[C@H](CC(=O)O)NC(=O)[C@@H]1CCCN1C(=O)[C@H](Cc1ccccc1)NC(=O)[C@@H](NC(=O)CNC(=O)[C@H](CCC(N)=O)NC(=O)[C@@H](N)Cc1ccccc1)[C@@H](C)O)C(=O)N[C@@H](Cc1c[nH]c2ccccc12)C(=O)N[C@@H](C)C(=O)N[C@H](C(=O)NCC(=O)N[C@@H](CO)C(=O)N[C@@H](C)C(=O)N[C@@H](C)C(=O)N[C@@H](Cc1ccc(O)cc1)C(=O)N[C@@H](CCC(N)=O)C(=O)N[C@H](C(=O)N[C@@H](CCC(=O)O)C(=O)NCC(=O)NCC(=O)N[C@@H](Cc1c[nH]c2ccccc12)C(=O)N[C@@H](CCC(N)=O)C(=O)N[C@@H](CCC(N)=O)C(=O)N[C@@H](Cc1c[nH]cn1)C(=O)NCC(=O)N[C@@H](CCCCN)C(=O)NCC(=O)O)[C@@H](C)O)C(C)C", "note": "[KP1]", "values": [
      {"measurement": "kon", "setting": "[3]", "value": 408, "unit": "M⁻¹ s⁻¹"},
      {"measurement": "phosphorus", "setting": "UIRI mice; UIRI mice + KP1, individual animals, n = 6, UIRI vs UIRI/KP1 P=0.220, Supplementary Table 2", "value": "4.92 mmol/L and 5.73 mmol/L and 6.63 mmol/L and 4.9 mmol/L and 3.76 mmol/L and 4.04 mmol/L"},
      {"measurement": "calcium", "setting": "UIRI mice; UIRI mice + KP1, individual animals, n = 6, UIRI vs UIRI/KP1 P=0.798, Supplementary Table 2", "value": "2.71 mmol/L and 2.53 mmol/L and 2.54 mmol/L and 2.38 mmol/L and 2.93 mmol/L and 2.46 mmol/L"},
      {"measurement": "effect on blood phosphorus and calcium (in words)", "setting": "UIRI mice; compared to the UIRI group", "value": "did not affect blood phosphorus and calcium level compared to the UIRI group"}
    ]}
  ]
}
